Data taken from patent US8445207B2, “Genes based on thalidomide, valproic acid and methotrexate treatment for screening of drug inducing teratogenicity and screening method using thereof” (priority 2009, dated 2013).

Test system: JEG-3 (human placental choriocarcinoma cell line)
Assay: Oligo microarray gene expression in drug-treated JEG-3 (Cy5 treated / Cy3 control)
Assay type: cell-based
Protocol: Thalidomide, valproic acid, and methotrexate were treated to human placental choriocarcinoma cell line at the concentrations determined above (Inhibition concentration: the concentration that can kill approximately 30% of the total cells, that is the concentration of 70% viability, IC30). mRNA was extracted from the drug treated cell line, followed by synthesis of cDNA which was labeled with Cy5. The non-treated control was labeled with Cy3. The fluorescence labeled cDNA was hybridized with 41K (thalidomide), 44K (valproic acid, methotrexate) human whole genome oligomicroarray chips (Agilent, USA), followed by fluorescent image scanning to analyze gene expression patterns (see FIG. 4). Volcano Plot of each substance was also attached. Y axis indicates probability (generally converted by −log 10). X axis indicates differential expression, which is presented by log-ratio.
Total RNA was separated from the treated cell by using trizol reagent (Invitrogen Life Technologies, USA) according to the manufacture's instructions, followed by purification using RNeasy mini kit (Qiagen, USA). Genomic DNA was eliminated during RNA purification using RNase-free DNase set (Qiagen, USA).
30 μg of the total RNA obtained above and 2 μg (1 μg/μl) of oligo (dT) primer were mixed, followed by reaction at 65° C. for 10 minutes. Annealing was performed in ice right after the reaction. Reagents were prepared as shown in Table 1 for reverse transcription of the annealed RNA.
The total RNA separated from the control group JEG-3 cells was labeled with Cy3-dUTP (green) and the total RNA separated from the experiment group JEG-3 cells treated with thalidomide, valproic acid and methotrexate was labeled with Cy5-dUTP (red). At this time, the two samples were mixed and purified by Microcon YM-30 column (Millipore, USA).
Hybridization and washing were performed by the manufacturer's (GenoCheck, Korea) instructions. Particularly, hybridization was performed in a 62° C. oven for 12 hours. As a DNA microarray chip, 44 k whole human genome oligo microarray (Agilent, USA) was used. After washing (2 minutes with 2×SSC/0.1% SDS, three minutes with 1×SSC, 2 minutes with 0.2×SSC), the slide was dried by centrifugation at 800 rpm for 3 minutes.
Hybridization image on the slide was scanned with Genepix 4000B (Axon Instruments, USA). Fluorescence image of the chip on which non-hybridized genes had been washed out was obtained by using laser fluorescence scanner. Green fluorescence image indicates the activity of gene specifically expressed in the control group and red fluorescence image indicates the activity of gene specifically expressed in the experimental group. […] Scanned image was analyzed by using GenePix 4.1 software (Axon Instruments, USA) to calculate gene expression rate.

[1] = out of 21797 (thalidomide), 21921 (valproic acid), 24006 (methotrexate) genes
[2] = treated at IC30, up-regulated gene, (k) common gene which has no function

CN(Cc1cnc2nc(N)nc(N)c2n1)c1ccc(C(=O)N[C@@H](CCC(=O)O)C(=O)O)cc1 [MTX, methotrexate]
Ratio of intermediate value, ATM (Genbank NM_000051, drug at IC30): 0.48
Ratio of intermediate value, KAL1 (Genbank NM_000216, drug at IC30): 0.43
Ratio of intermediate value, PMP22 (Genbank NM_000304, drug at IC30): 0.43
Ratio of intermediate value, ATR (Genbank NM_001184, drug at IC30): 0.41
Ratio of intermediate value, PARP1 (Genbank NM_001618, drug at IC30): 0.60
Ratio of intermediate value, AUH (Genbank NM_001698, drug at IC30): 0.39
Ratio of intermediate value, CDO1 (Genbank NM_001801, drug at IC30): 0.45
Ratio of intermediate value, MGMT (Genbank NM_002412, drug at IC30): 0.48
Ratio of intermediate value, NTHL1 (Genbank NM_002528, drug at IC30): 0.42
Ratio of intermediate value, UNG (Genbank NM_003362, drug at IC30): 0.41
Ratio of intermediate value, EEF1E1 (Genbank NM_004280, drug at IC30): 0.46
Ratio of intermediate value, FEZ1 (Genbank NM_005103, drug at IC30): 0.43
Ratio of intermediate value, BCAT1 (Genbank NM_005504, drug at IC30): 0.12
Ratio of intermediate value, BCKDK (Genbank NM_005881, drug at IC30): 0.48
Ratio of intermediate value, POLD2 (Genbank NM_006230, drug at IC30): 0.29
Ratio of intermediate value, FARS2 (Genbank NM_006567, drug at IC30): 0.46
Ratio of intermediate value, POLG2 (Genbank NM_007215, drug at IC30): 0.45
Ratio of intermediate value, ABL1 (Genbank NM_007313, drug at IC30): 0.49
Ratio of intermediate value, LIG3 (Genbank NM_013975, drug at IC30): 0.49
Ratio of intermediate value, CGI-04 (Genbank NM_015936, drug at IC30): 0.47
Ratio of intermediate value, MAPT (Genbank NM_016835, drug at IC30): 0.38
Ratio of intermediate value, FLJ10514 (Genbank NM_018122, drug at IC30): 0.38
Ratio of intermediate value, LGP1 (Genbank NM_032484, drug at IC30): 0.49
Ratio of intermediate value, PSAT1 (Genbank NM_058179, drug at IC30): 0.31
Ratio of intermediate value, HARS2 (Genbank NM_080820, drug at IC30): 0.26
Ratio of intermediate value, DBN1 (Genbank NM_080881, drug at IC30): 0.44
Ratio of intermediate value, ASNS (Genbank NM_133436, drug at IC30): 0.33
Ratio of intermediate value, ROBO1 (Genbank NM_133631, drug at IC30): 0.39
Ratio of intermediate value, TARSL2 (Genbank NM_152334, drug at IC30): 0.36
Ratio of intermediate value, CNTN4 (Genbank NM_175607, drug at IC30): 0.31
Ratio of intermediate value, ERCC8 (Genbank NM_001007233, drug at IC30): 0.41
Ratio of intermediate value, RAD50 (Genbank U63139, drug at IC30): 0.36
Ratio of intermediate value, VARS2 (Genbank X59303, drug at IC30): 0.33
Ratio of intermediate value, SR140 (Genbank XM_031553, drug at IC30): 0.66
Ratio of intermediate value, LOC389173 (Genbank XM_371677, drug at IC30): 0.27
genes down-regulated (ratio of intermediate value less than 0.666) (JEG-3, drug at IC30, 48 hours): 6.28%
genes up-regulated (ratio of intermediate value more than 1.5) (JEG-3, drug at IC30, 48 hours): 9.5%
number of genes down-regulated [1]: 1508
number of genes up-regulated [1]: 2149
Ratio of intermediate value, gene ATP10B (AB018258, ATPase, Class V, type 10B) [2]: 4.95
Ratio of intermediate value, gene BQ186674 (cDNA clone UI-E-EJ1-ajr-f-10-0-UI, Hypothetical gene supported by AF086204) [2]: 3.79
Ratio of intermediate value, gene BX111592 (Transcribed locus, moderately similar to XP_066443.6 PREDICTED: similar to paraneoplastic antigen like 6A) [2]: 9.86
Ratio of intermediate value, gene CGA (NM_000735, Glycoprotein hormones, alpha polypeptide) [2]: 8.07
Ratio of intermediate value, gene COBLL1 (BX649112, COBL-like 1) [2]: 4.89
Ratio of intermediate value, gene CYP19A1 (AK023571, Cytochrome P450, family 19, subfamily A, polypeptide 1) [2]: 2.72
Ratio of intermediate value, gene FLJ11017 (AK001879, Hypothetical protein FLJ11017) [2]: 4.69
Ratio of intermediate value, gene GLCCI1 (AK126731, Glucocorticoid induced transcript 1) [2]: 2.84
Ratio of intermediate value, gene KIAA0310 (AB002308, KIAA0310) [2]: 2.29
Ratio of intermediate value, gene MGC27016 (AK125877, Hypothetical protein MGC27016) [2]: 1.52
Ratio of intermediate value, gene NCOA3 (NM_181659, Nuclear receptor coactivator 3) [2]: 2.12
Ratio of intermediate value, gene RGS2 (BC042755, Regulator of G-protein signalling 2, 24 kDa) [2]: 9.24
Ratio of intermediate value, gene SIAT7A (BC063830, ST6 (alpha-N-acetyl-neuraminyl-2,3-beta-galactosyl-1,3)-N-acetylgalactosaminide alpha-2,6-sialyltransferase 1) [2]: 15.01
Ratio of intermediate value, gene SIAT8D (NM_005668, ST8 alpha-N-acetyl-neuraminide alpha-2,8-sialyltransferase 4) [2]: 1.82
Ratio of intermediate value, gene SLC7A8 (Y18483, Solute carrier family 7 (cationic amino acid transporter, y+ system), member 8) [2]: 3.76
Ratio of intermediate value, gene SLC40A1 (AK023574, Solute carrier family 40 (iron-regulated transporter), member 1) [2]: 3.06
Ratio of intermediate value, gene TFCP2L4 (BC036890, Grainyhead-like 3 (Drosophila)) [2]: 4.11
Ratio of intermediate value, gene TTF2 (AB209845, Transcription termination factor, RNA polymerase II) [2]: 1.94
Ratio of intermediate value, gene TUBB3 (AK122757, Tubulin, beta 3) [2]: 7.85
Ratio of intermediate value, gene TncRNA (AF001893, Trophoblast-derived noncoding RNA) [2]: 2.11
